Data from patent US12569563B2, “Selective HDAC6 degraders and methods of use thereof” (DANA-FARBER CANCER INSTITUTE, INC., priority 2019, dated 2026).

How the values were obtained:
Format in all cases: biochemical
HDAC5 = target: T1, HDAC5 (Homo sapiens, UniProt Q9UQL6); experiment: HDAC assay from Reaction Biology, Class2A substrate; conditions: 10-dose response curve; read-out: Compound IC50 HDAC5
T1 construct: purchased Reaction Biology
Protocol: (§1) Compounds 1 and 3 were tested in a HDAC assay from Reaction Biology® against 10 different HDACs.
(§2) Base Reaction buffer: 50 mM Tris-HCl, pH8.0, 137 mM NaCl, 2.7 mM KCl, and 1 mM MgCl2,
(§3) Add fresh: 1 mg/ml BSA, 1% DMSO
(§4) • (HDAC8 only substrate: 50 μM, Arg-His-Lys(Ac)-Lys(Ac))-AMC Class2A Substrate (HDAC4, HDAC5, HDAC7, and HDAC9): Boc-Lys(trifluoroacetyl)-AMC For SIRTs 1-3, general Class1 HDAC substrate and 500 μM NAD+ For SIRT5, Ac-Lys-succ and 500 μM NAD+ Reaction Procedure Deacetylation Step • 1. Delivered 2× enzyme in wells of reaction plate except in the control wells and added buffer to control wells. • 2. Delivered compounds in 100% DMSO into the enzyme mixture by Acoustic technology (Echo550; nanoliter range). Spin down and pre-incubation. • 3. Delivered 2× Substrate Mixture (Fluorogenic HDAC Substrate and co-factor if applicable) in all reaction wells to initiate the reaction. Spin and shake. • 4. Incubated for 30 min for Class 2A, 1 hr for HDAC1, 2, 3, and 6, and 2 hr for the rest of HDACs and SIRTs at 30° C. with seal. Development Step • 5. Added Developer with Trichostatin A (or Nicotinamide for SIRTs) to stop the reaction and to generate fluorescent color. • 6. The fluorescence that was generated was detected with excitation (Ex) at […] and emission (Em) at 460 nM by the EnVision Multilabel Plate Reader (PerkinElmer®, Santa Clara, CA, USA). • 7. […]

HDAC1 = target: T2, HDAC1 (Homo sapiens, UniProt Q13547); experiment: HDAC assay from Reaction Biology, fluorogenic substrate; conditions: 10-dose response curve; read-out: Compound IC50 HDAC1
T2 construct: purchased Reaction Biology
T2 sequence (Q13547 whole entry): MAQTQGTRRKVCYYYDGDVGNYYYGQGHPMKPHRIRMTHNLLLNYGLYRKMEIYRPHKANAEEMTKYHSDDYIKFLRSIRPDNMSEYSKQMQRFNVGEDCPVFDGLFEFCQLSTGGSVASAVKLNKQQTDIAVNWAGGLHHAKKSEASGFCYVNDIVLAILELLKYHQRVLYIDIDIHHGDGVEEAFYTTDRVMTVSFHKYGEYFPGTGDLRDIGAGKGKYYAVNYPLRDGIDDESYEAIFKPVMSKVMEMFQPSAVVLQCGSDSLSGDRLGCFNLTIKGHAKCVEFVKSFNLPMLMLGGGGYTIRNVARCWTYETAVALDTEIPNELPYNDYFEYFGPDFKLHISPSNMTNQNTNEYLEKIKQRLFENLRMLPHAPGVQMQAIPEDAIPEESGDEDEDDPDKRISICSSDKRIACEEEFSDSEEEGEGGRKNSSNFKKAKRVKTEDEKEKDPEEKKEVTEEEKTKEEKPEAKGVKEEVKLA
Protocol: as §1, §2, §3
(§5) Fluorogenic HDAC General Substrate (HDAC1, HDAC2, HDAC3, HDAC6, HDAC10, and HDAC11): 50 μM, Arg-His-Lys-Lys(Ac)-AMC
(§6) • (HDAC8 only substrate: 50 μM, Arg-His-Lys(Ac)-Lys(Ac))-AMC Class2A Substrate (HDAC4, HDAC5, HDAC7, and HDAC9): Boc-Lys(trifluoroacetyl)-AMC For SIRTs 1-3, general Class1 HDAC substrate and 500 μM NAD+ For SIRT5, Ac-Lys-succ and 500 μM NAD+ Reaction Procedure Deacetylation Step • 1. Delivered 2× enzyme in wells of reaction plate except in the control wells and added buffer to control wells. • 2. Delivered compounds in 100% DMSO into the enzyme mixture by Acoustic technology (Echo550; nanoliter range). Spin down and pre-incubation. • 3. Delivered 2× Substrate Mixture (Fluorogenic HDAC Substrate and co-factor if applicable) in all reaction wells to initiate the reaction. Spin and shake. • 4. Incubated for 30 min for Class 2A, 1 hr for HDAC1, 2, 3, and 6, and 2 hr for the rest of HDACs and SIRTs at 30° C. with seal. Development Step • 5. Added Developer with Trichostatin A (or Nicotinamide for SIRTs) to stop the reaction and to generate fluorescent color. • 6. The fluorescence that was generated was detected with excitation (Ex) at […] and emission (Em) at 460 nM by the EnVision Multilabel Plate Reader (PerkinElmer®, Santa Clara, CA, USA). • 7. IC50 values, presented in Table 1, were derived from a 10-dose response curve.

HDAC2 = target: T3, HDAC2 (Homo sapiens, UniProt Q92769); experiment: as above; conditions: 10-dose response curve; read-out: Compound IC50 HDAC2
T3 construct: purchased Reaction Biology
T3 sequence (Q92769 whole entry): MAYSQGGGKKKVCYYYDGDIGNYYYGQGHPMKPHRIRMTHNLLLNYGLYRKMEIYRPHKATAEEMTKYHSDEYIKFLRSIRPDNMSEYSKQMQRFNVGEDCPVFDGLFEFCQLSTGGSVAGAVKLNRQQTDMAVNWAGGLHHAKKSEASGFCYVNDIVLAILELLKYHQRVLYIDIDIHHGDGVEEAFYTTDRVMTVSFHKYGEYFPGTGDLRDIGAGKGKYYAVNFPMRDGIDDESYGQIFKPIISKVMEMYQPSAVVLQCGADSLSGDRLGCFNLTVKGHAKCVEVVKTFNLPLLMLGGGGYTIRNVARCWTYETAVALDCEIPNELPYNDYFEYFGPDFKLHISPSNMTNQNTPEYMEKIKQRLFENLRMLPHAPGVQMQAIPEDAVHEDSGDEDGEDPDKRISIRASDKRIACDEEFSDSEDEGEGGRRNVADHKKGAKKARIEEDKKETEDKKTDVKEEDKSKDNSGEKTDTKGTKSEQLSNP
Protocol: as §1, §2, §3, §5, §6

HDAC3 = target: T4, HDAC3 (Homo sapiens, UniProt O15379); experiment: as above; conditions: 10-dose response curve; read-out: Compound IC50 HDAC3
T4 construct: purchased Reaction Biology
T4 sequence (O15379 whole entry): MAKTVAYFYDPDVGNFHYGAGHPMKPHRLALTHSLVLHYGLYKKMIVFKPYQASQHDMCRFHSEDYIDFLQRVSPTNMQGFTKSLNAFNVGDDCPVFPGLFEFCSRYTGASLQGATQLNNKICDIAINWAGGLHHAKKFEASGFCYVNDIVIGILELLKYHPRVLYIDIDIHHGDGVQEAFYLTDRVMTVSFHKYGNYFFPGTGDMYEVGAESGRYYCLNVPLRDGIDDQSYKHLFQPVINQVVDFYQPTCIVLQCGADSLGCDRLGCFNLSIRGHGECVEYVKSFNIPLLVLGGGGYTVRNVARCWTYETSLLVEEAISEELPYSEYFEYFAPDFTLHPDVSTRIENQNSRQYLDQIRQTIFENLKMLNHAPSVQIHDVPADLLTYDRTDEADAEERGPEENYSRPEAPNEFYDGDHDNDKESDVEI
T4 sequence (Q9Y618 395-489 partner limits assumed): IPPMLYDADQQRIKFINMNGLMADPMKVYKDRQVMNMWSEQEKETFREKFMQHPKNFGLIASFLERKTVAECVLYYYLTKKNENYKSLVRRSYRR
Protocol: as §1, §2, §3, §5, §6

HDAC8 = target: T5, HDAC8 (Homo sapiens, UniProt Q9BY41); experiment: HDAC assay from Reaction Biology, HDAC8 substrate; conditions: 10-dose response curve; read-out: Compound IC50 HDAC8
T5 construct: purchased Reaction Biology
T5 sequence (Q9BY41 1-377): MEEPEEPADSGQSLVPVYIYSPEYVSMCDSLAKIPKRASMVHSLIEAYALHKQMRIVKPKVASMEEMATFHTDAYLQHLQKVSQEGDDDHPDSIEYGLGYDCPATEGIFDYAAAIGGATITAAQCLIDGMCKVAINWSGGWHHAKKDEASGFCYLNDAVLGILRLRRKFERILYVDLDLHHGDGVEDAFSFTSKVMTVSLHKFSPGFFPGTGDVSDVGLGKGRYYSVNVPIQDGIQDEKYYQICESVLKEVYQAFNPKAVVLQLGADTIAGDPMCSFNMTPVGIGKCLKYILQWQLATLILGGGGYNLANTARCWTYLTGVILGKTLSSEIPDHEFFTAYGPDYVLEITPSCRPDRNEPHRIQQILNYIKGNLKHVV
Protocol: as §1, §2, §3, §4

HDAC6 = target: T6, HDAC6 (Homo sapiens, UniProt Q9UBN7); experiment: HDAC assay from Reaction Biology, fluorogenic substrate; set-up: purchased Reaction Biology; conditions: 10-dose response curve; read-out: Compound IC50 HDAC6
T6 sequence (Q9UBN7 1-1215): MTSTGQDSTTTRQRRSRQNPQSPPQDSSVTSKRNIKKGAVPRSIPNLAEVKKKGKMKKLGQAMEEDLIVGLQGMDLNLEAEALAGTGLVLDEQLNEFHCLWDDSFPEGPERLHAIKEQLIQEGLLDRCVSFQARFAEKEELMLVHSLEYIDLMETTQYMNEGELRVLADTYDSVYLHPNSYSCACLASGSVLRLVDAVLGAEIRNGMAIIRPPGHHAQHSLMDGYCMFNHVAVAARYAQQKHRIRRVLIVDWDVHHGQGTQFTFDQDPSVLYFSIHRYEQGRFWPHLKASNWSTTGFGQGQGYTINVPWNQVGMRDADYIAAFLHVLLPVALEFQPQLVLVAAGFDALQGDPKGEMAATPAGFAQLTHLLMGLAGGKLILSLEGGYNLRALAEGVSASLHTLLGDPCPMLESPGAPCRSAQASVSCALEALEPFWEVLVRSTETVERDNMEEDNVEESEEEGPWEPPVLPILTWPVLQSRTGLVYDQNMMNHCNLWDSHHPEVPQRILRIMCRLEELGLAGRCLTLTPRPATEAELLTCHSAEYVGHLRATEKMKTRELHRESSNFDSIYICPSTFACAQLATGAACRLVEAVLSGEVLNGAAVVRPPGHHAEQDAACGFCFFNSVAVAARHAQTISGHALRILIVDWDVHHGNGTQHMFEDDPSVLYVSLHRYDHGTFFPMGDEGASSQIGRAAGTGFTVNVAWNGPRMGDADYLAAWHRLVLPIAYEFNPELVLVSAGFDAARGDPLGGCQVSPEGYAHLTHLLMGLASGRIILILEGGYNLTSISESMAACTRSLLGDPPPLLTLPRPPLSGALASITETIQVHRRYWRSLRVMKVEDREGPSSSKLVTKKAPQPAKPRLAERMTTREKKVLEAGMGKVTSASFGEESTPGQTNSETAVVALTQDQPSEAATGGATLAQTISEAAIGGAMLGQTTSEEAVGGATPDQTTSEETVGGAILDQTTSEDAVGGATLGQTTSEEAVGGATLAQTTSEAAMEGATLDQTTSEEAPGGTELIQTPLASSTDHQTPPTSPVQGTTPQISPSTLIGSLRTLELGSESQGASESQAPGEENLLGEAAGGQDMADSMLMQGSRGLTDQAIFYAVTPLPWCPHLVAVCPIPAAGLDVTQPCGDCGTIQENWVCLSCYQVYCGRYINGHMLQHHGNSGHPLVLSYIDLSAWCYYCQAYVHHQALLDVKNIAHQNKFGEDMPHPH
Protocol: as §1, §2, §3, §5
as §4, with “Added Developer with Trichostatin A (or Nicotinamide for SIRTs) to stop the reaction and to generate fluorescent color. • 6.” left out

T1 sequence (Q9UQL6 whole entry): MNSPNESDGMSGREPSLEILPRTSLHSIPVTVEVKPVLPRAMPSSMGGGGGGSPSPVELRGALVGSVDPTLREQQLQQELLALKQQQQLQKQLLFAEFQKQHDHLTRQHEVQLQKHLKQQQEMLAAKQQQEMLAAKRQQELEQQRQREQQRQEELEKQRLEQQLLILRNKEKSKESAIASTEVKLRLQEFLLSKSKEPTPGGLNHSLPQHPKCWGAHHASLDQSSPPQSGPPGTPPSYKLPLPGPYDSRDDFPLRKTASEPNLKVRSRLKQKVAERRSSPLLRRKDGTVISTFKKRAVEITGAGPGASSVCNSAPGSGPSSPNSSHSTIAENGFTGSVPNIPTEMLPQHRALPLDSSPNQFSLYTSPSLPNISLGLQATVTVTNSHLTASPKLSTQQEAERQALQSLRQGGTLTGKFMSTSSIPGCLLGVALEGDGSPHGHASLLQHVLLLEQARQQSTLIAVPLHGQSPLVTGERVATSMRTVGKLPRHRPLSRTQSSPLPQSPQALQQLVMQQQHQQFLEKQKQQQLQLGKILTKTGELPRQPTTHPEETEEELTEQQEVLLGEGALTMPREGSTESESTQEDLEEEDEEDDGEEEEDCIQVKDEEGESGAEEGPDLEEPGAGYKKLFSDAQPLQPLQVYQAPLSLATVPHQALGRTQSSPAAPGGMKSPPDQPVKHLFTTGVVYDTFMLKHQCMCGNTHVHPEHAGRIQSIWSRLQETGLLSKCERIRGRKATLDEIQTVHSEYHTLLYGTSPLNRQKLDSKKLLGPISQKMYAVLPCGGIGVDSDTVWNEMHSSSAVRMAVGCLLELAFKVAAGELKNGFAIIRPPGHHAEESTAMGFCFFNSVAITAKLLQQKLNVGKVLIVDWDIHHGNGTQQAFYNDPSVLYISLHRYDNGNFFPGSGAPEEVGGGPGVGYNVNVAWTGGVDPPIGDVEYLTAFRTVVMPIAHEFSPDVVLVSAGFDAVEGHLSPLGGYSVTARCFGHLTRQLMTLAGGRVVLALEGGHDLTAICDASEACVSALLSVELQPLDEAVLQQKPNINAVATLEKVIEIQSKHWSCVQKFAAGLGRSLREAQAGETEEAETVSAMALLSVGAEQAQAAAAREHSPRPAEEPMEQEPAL

IC50 (HDAC5)	IC50 (HDAC1)	IC50 (HDAC2)	IC50 (HDAC3)	IC50 (HDAC8)	IC50 (HDAC6)	SMILES
5750 nM	1040 nM	2470 nM	1440 nM	621 nM	48.5 nM	CN(C(=O)CCCNc1cccc2c1C(=O)N(C1CCC(=O)NC1=O)C2=O)c1ccc(NC(=O)CCCCCCC(=O)NO)cc1 (stereo not drawn) [Compound 1, N^1-(4-(4-((2-(2,6-dioxopiperidin-3-yl)-1,3-dioxoisoindolin-4-yl)amino)-N-methylbutanamido)phenyl)-N^8-hydroxyoctanediamide]
7830 nM	4410 nM	14400 nM	3430 nM	400 nM	40.1 nM	CN(C(=O)CCCCCCCNc1cccc2c1C(=O)N(C1CCC(=O)NC1=O)C2=O)c1ccc(NC(=O)CCCCCCC(=O)NO)cc1 (stereo not drawn) [Compound 3, N^1-(4-(8-((2-(2,6-dioxopiperidin-3-yl)-1,3-dioxoisoindolin-4-yl)amino)-N-methyloctanamido)phenyl)-N^8-hydroxyoctanediamide]
